Measurements reported in US9801896B2, “Compositions comprising S-adenosylmethionine and a gallic acid ester” (Methylation Sciences International SRL, priority 2012, dated 2017).
Values belong to the compound of their own block, whether it stands above or below them.

Columns and labels:
[1] = Beagle plasma SAMe after tablets of SAMe co-formulated with alkyl gallates (Example 1); assay type: in vivo; settings: fasted male beagle dogs, single oral enteric coated tablet, 400 mg SAMe ion co-formulated with 25 mg gallic acid ester; FIG. 1; compared with other formulations
Procedure: Tablets comprising SAMe and various alkyl gallates of different chemical structure were generated by mixing SAMe with either methyl gallate, ethyl gallate, butyl gallate, isobutyl gallate, isoamyl gallate or octyl gallate (see structures below). Tablets were then administered to Beagle dogs and blood samples were withdrawn over time. Analysis of concentrations of SAMe in plasma was used to compare the effects of these gallic acid esters on the uptake of orally administered SAMe in the blood.
Tablets were generated by mixing 400 mg SAMe ion (from SAMe disulfate tosylate) with 25 mg gallic acid ester along with excipients (microcrystalline cellulose, sodium starch glycolate, silicon dioxide, and magnesium stearate) to make up the 1025 mg tablet. A commercial seal coat and then a commercial enteric coat was applied to the tablets prior to dissolution testing. Detailed dissolution profiling was performed according to USP standards at either pH 6.8 or 6.0 on each set of tablets to ensure that adequate dissolution was achieved prior to in vivo pharmacokinetic analysis.
The study protocol was approved by the institution's Animal Care Committee, and all animals were cared for according to regulations proposed by Agriculture Canada and the USDA.
Ten different formulations were tested in the present study. 400 mg SAMe co-formulated with 25 mg propyl gallate was compared to: SAMe control tablets (i.e., with no propyl gallate); SAMe tablets co-administered with separate 25 mg propyl gallate tablets; a commercially available SAMe product (400 mg); or 400 mg SAMe with 25 mg of either methyl gallate, ethyl gallate, butyl gallate, isobutyl gallate, isoamyl gallate or octyl gallate.

[2] = Beagle plasma SAMe after capsules of SAMe with gallate-related molecules (Example 2); assay type: in vivo; settings: beagle dogs, single oral capsule, 100 mg SAMe ion with 100 mg agent; versus BHT, propyl paraben and gallic acid; FIGS. 2A, 2B
Procedure: BHT, propyl paraben and propyl gallate are food-grade antioxidants which have often been used in combination. […] The capsules also contained additional excipients (Microcrystalline cellulose, Sodium Starch Glycolate, Colloidal Silicon Dioxide, and Magnesium Stearate). Capsules were manually filled and in some embodiments, a layer of commercial seal coat was applied to the capsules using a fluid bed coater. Beagle dogs were administered a single orally delivered dose as described above.

[3] = tested on: Caco-2 cell monolayers; experiment: Permeability of SAMe across Caco-2 cell monolayers with propyl gallate (Example 3)
Procedure: The Caco-2 cell line is derived from a human colorectal carcinoma and is widely used for in vitro cell culture models for the study of gastrointestinal drug absorption (Stewart, B., (1995) Pharm. Res. 12:693). In these models, pure cell lines are grown on a semi-permeable membrane. Drug formulations are placed on the apical or basolateral side of the cell monolayer and transport is determined via measurement of drug concentrations on the other side of the membrane.
The Caco-2 cell line utilized here was from the American Type Culture Collection (ATCC). Caco-2 cells are grown in Dulbecco's modified Eagle's medium (DMEM, Gibco) supplemented with 20% FBS (fetal bovine serum, Gibco), 100 uM non-essential amino acids (NEAA, Gibco) and 2 mM L-glutamine (Gibco). […] The cells used in transport studies were grown for 3 days before the experiments. The culturing conditions were 37° C. in an atmosphere of 5% CO2 and 100% humidity.
A 2 mM aqueous solution of SAMe disulfate tosylate was added on the apical or basolateral side according to the manufacturer's procedure for the Caco-2 kit.
The permeability (Papp) of SAMe is calculated using the following formula: […]
Where dQ/dt is the rate of permeation, C0 is the initial concentration of test agent, and A is the area of the monolayer.

[4] = Beagle pharmacokinetics of SAMe tablets with various amounts of propyl gallate (Example 6)
Procedure: Tablets comprising SAMe and various amounts of propyl gallate were generated by mixing S-adenosyl-L-methionine disulfate tosylate granules (equivalent to 400 mg of SAMe ion) with the various amounts of propyl gallate listed in Table 4 below. Each mixture was pressed into a tablet and coated followed by dissolution profiling and in vivo pharmacokinetic analysis using beagle dogs.
For in vivo studies, fasted male beagle dogs (7-10 kg) were used as described above. Each group (6 dogs for SAMe/propyl gallate and 6 dogs for the SAMe control lacking propyl gallate) were dosed with a single orally administered enteric coated tablet, under fasted conditions, followed by 5 mL of purified water orally with a syringe to facilitate swallowing. Pharmacokinetic blood samples (2 mL each) for SAMe analysis were collected from the jugular vein using the following time points: pre-dose, 20 and 40 minutes, 1, 1.5, 2, 3, 4, 6, and 8 hours after treatment. The venipuncture blood samples were collected into tubes containing the anticoagulant K2-EDTA, and stored on wet ice pending processing. Following collection, samples were centrifuged (at 4° C.) to separate the plasma fraction from the blood cells. […]
The concentration of SAMe in dog plasma was determined using the well established LC/MS/MS method. […]

[5] = PAMPA permeability of SAMe with and without propyl gallate (Example 4); assay type: in vitro ADME; settings: for Average Effective Permeability: PAMPA, SAMe 2 mM, 5 hr
Procedure: Using a PAMPA (parallel artificial membrane permeability assay) model, the permeability of SAMe was measured in the presence and absence of propyl gallate.
PAMPA methods were used to determine the permeability of substances from a donor compartment, through a lipid-infused artificial membrane into an acceptor compartment. A multi-well microtitre plate was used for the donor and a membrane/acceptor compartment is placed on top. At the beginning of the test, SAMe disulfate tosylate (with or without different concentrations of propyl gallate as indicated in Table 2 below) was added to the donor compartment, and the acceptor compartment remained drug-free. After an incubation period, the compartments were separated and the amount of SAMe was measured in each compartment. Mass balance allows calculation of SAMe that remains in the membrane.

maximum SAMe plasma concentration (Cmax), uptake into the plasma [1]: superior uptake into the plasma
Compound: CCOC(=O)c1cc(O)c(O)c(O)c1 [ethyl gallate]

maximum SAMe plasma concentration (Cmax), uptake into the plasma [1]: superior uptake into the plasma | plasma SAMe Cmax and AUC, SAMe uptake into the blood [2]: superior and surprising ability | effect of propyl gallate on SAMe transport in Caco-2 cells ([3]; summary of Table 1): increases SAMe transport | relationship of propyl gallate with SAMe uptake in vivo ([4]; dog, in vivo): dose-response relationship
Compound: CCCOC(=O)c1cc(O)c(O)c(O)c1 [propyl gallate]

maximum SAMe plasma concentration (Cmax), uptake into the plasma [1]: superior uptake into the plasma
Compound: CCCCCCCCOC(=O)c1cc(O)c(O)c(O)c1 [octyl gallate]

More lines, now with the values behind:

Compound: CCCCOC(=O)c1cc(O)c(O)c(O)c1 [butyl gallate]
maximum SAMe plasma concentration (Cmax), uptake into the plasma [1]: did not result in pharmacokinetics even close to that of SAMe-propyl gallate formulations

Compound: CC(C)CCOC(=O)c1cc(O)c(O)c(O)c1 [isoamyl gallate]
maximum SAMe plasma concentration (Cmax), uptake into the plasma [1]: superior uptake into the plasma

Compound: S-adenosyl-L-methionine disulfate tosylate [SAMe disulfate tosylate]
apparent permeability coefficient (Papp), apical to basolateral ([3]; Caco-2, apical to basolateral, SAMe salt alone): 0.41 ×10⁻⁶ cm/s | apparent permeability coefficient (Papp), basolateral to apical ([3]; Caco-2, basolateral to apical, SAMe salt alone): 0.5 ×10⁻⁶ cm/s

Compound: C[S+](CC[C@H](N)C(=O)[O-])C[C@H]1O[C@@H](n2cnc3c(N)ncnc32)[C@H](O)[C@@H]1O (stereo partly drawn) [SAMe, S-adenosyl-L-methionine]
Average Effective Permeability ([5]; Propyl Gallate 0 mM): 0.0042 ×10⁻⁶ cm/s | Average Effective Permeability ([5]; Propyl Gallate 0.2 mM): 0.002 ×10⁻⁶ cm/s | Average Effective Permeability ([5]; Propyl Gallate 2 mM): 0.0048 ×10⁻⁶ cm/s | transport of SAMe across the PAMPA membrane ([5]; summary of Table 2): essentially no transport | AUC(0-inf.) ± SD ([4]; beagle, oral tablet, SAMe 400 mg, Propyl Gallate 6.25 mg): 21,734 ± 9848^ hr*ng/mL
